Legend:
[1] = tested on: NSA mice; assay: Hypothermia study (block of CP 55,940-induced hypothermia); assay type: in vivo; details: pretreatment 30 min prior to CP55,940, dose-dependent, FIG. 6
Experimental: . […] Core body temperatures were then obtained at various time points following CP 55,940 administration. Core body temperature (to the nearest 0.1° C.) was obtained by rectal probe.

[2] = tested on: fasted Sprague-Dawley rats; assay: Acute feeding study; assay type: in vivo; details: 1, 3, 10 mg/kg, dose-dependent, FIGS. 2-4
Experimental: Male, Sprague-Dawley rats (90-120 g) served as subjects for these studies. Rats were fasted for a period of 16 hrs (water was always available). After the fasting period, test compounds were administered either intraperitoneally (ip) or orally (po). Immediately following compound administration, the rats were returned to their home cage. Following 30 min after compound administration, the rats were removed from their home cages and placed individually into clean cages with a pre-measured amount of food. Food weights were obtained (to the nearest 0.1 g) at various time points. Food consumption was monitored for a period of up to 2 hrs (i.e., 2.5 hr after test compound administration).

[3] = tested on: NSA mice; assay: Tail flick study (block of CP 55,940 antinociception); details: test compound ip 30 min prior to CP55,940, FIGS. 5A, 5B
[4] = molecular target: hERG (Homo sapiens, UniProt Q12809); assay: in vitro; details: pH 7.4
Chain of hERG (Q12809 whole entry, the tested form may be a part): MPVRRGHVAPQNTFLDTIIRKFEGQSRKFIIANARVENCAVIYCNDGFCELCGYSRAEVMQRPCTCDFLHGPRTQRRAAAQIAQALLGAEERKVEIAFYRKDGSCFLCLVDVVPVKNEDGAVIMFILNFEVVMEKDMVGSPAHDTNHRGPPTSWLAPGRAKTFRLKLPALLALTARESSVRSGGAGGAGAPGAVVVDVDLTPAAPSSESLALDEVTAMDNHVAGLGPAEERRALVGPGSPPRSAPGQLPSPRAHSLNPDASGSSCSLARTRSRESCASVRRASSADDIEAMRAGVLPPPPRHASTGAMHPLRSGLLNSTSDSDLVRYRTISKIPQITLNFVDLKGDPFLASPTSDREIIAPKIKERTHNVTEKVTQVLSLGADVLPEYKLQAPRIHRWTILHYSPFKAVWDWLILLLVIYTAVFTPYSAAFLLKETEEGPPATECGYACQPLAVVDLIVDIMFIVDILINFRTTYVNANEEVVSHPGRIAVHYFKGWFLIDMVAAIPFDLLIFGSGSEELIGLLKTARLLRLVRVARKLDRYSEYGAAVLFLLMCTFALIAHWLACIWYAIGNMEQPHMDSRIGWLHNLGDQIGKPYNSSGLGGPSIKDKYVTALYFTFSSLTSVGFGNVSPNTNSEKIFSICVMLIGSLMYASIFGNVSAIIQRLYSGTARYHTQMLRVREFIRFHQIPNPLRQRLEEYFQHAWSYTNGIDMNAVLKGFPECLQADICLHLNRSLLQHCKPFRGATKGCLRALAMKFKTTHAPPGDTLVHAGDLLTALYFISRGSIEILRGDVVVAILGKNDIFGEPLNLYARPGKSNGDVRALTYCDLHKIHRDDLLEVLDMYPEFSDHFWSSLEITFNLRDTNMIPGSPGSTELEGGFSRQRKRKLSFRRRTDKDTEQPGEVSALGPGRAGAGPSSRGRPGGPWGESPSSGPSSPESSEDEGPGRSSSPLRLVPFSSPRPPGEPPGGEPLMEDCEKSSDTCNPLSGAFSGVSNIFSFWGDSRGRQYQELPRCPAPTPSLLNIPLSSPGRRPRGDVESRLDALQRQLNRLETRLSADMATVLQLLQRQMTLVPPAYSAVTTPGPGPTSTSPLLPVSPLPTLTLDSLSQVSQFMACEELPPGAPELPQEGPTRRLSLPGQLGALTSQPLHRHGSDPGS

[5] = molecular target: CB1 (mutant) (Homo sapiens, UniProt P21554); assay: R-SAT functional receptor assay, CB1 (mutant, truncated after amino acid 417); assay type: cell-based; details: Table 1, CB1 (mutant); for IC50: inhibition of constitutive receptor response, read-out: pIC50 (converted); for % Inhibition: relative to the ligand SR141716 (100%)
Chain of CB1 (mutant) (P21554 1-417, change not shown): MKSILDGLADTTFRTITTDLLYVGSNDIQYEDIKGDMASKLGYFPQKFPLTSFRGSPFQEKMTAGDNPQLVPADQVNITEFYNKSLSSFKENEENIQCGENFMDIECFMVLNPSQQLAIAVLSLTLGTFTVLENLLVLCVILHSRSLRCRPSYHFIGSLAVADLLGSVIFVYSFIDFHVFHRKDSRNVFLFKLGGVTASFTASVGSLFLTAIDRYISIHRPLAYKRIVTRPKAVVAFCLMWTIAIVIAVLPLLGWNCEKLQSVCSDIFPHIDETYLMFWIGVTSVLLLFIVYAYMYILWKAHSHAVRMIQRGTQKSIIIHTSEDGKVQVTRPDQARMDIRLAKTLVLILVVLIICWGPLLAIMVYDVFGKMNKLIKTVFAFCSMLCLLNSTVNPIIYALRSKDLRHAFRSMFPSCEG

[6] = molecular target: CB1 (wild-type) (Homo sapiens, UniProt P21554); assay: R-SAT functional receptor assay, CB1 (wild-type); assay type: cell-based; details: for IC50: Table 1, inhibition of constitutive receptor response; for Emax: Table 1, relative to the ligand SR141716 (100%), read-out: % Inhibition
Chain of CB1 (wild-type) (P21554 whole entry): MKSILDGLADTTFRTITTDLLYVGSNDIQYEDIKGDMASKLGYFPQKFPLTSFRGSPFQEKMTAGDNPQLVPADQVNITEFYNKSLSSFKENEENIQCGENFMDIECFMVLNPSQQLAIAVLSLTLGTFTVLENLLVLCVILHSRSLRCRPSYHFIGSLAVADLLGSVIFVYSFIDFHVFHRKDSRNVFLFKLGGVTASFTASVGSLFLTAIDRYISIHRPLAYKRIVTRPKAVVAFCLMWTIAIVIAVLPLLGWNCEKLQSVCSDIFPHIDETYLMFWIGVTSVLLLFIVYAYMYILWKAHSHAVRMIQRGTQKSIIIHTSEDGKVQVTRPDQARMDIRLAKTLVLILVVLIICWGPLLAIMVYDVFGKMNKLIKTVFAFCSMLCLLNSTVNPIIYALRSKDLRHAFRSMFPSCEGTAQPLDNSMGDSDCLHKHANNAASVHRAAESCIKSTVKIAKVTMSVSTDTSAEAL

[7] = tested on: rats with unilateral 6-OH dopamine lesions; assay: Rotation study (unilateral 6-hydroxy-dopamine lesion); assay type: in vivo; details: 6-OH dopamine lesioned rats; apomorphine 0.05, 0.16, 0.5 mg/kg ip; Compound II 3 mg/kg; FIGS. 14-16
[8] = microsomes
[9] = in vitro; details: rat, microsomes, pH 7.4
[10] = in vitro; details: mouse, microsomes, pH 7.4
[11] = tested on: obese Zucker rats; assay: Chronic feeding study; assay type: in vivo; details: 1, 3, 10 mg/kg/day, dose-dependent, FIGS. 9A-9D
Experimental: Male, obese Zucker rats (400-500 g) served as subjects for these studies. Rats were housed individually and had access to food and water ad libitum. Rats were allowed to acclimate to the vivarium for a period of 3 days, during which body weight and consumption of food and water was monitored. […] Daily food and water intakes were also monitored. Food and water bottles were weighed at the time body weights were recorded (i.e., 1350 hr). Vehicle or compound was administered daily for a period of up to 15 days.

[12] = tested on: C57 BK/6 mice; assay: Novel object recognition study; assay type: in vivo; details: test 1 or 2 hours after dosing, CP 55,940 0.3 mg/kg ip, SR141716A 1 mg/kg ip, Compound II 3 mg/kg ip, FIGS. 10, 11
Experimental: Subjects: Subjects were male, C57 BK/6 mice purchased from Harlan Laboratories, weighing 15-20 g upon arrival. Animals were housed 8 per cage with food and water available ad libidum. Animals were housed on a 12 hr light cycle (lights on 6 am) for 4-7 days prior to behavioral testing.
Equipment: Novel object recognition (NOR) was conducted in a novel environment consisting of a white plastic tub measuring 45.7×33.7×19 cm. Prior to each trial the bottom of the tub was covered with a piece of plastic lined bench top paper. There were two sets of identical objects chosen so that when given a opportunity to explore, mice would evenly divide exploration time between the objects. “A” objects were yellow, ceramic, 12-sided ramekins measuring 4 cm high×7 cm diameter. “B” objects were 8×8×4 cm stainless steel, 4-sided ramekins.
Procedure: At the beginning of each test day, animals were placed in groups of 6 into clean cages. Testing was conducted in three phases: acclimation, sample and test. […] Each mouse was allowed to explore the chamber and the objects for 3 min., and the time spent exploring at each position was recorded. Directly sniffing or touching the object was recorded as exploration. […] The test sessions were recorded on video and scored by an observer blind to each subject's treatment condition. Any time spent directly sniffing or touching an object was counted as exploration. […]

[13] = molecular target: native CB1 receptors (Rattus norvegicus, UniProt P20272); assay: CB1 receptor rat binding assay ([3H]SR141716A, rat brain membranes); details: rat brain membranes; 3 nM [3H]SR141716A; read-out: Rat Brain pKi (converted)
Chain of native CB1 receptors (P20272 whole entry): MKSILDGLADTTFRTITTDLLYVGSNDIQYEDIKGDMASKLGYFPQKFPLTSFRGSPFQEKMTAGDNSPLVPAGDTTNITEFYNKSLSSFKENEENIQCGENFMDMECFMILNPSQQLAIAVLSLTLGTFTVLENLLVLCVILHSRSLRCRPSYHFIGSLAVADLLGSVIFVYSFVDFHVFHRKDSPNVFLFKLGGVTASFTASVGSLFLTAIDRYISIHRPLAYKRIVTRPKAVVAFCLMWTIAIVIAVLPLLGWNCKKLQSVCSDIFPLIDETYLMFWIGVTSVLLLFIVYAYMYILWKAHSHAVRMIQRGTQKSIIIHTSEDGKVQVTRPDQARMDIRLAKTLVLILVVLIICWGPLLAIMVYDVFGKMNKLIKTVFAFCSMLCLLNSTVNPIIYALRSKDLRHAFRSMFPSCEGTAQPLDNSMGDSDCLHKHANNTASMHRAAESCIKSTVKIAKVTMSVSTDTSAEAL

O=C(NN1CCCCC1)c1ccc2c(c1)N=C(C1CCCCC1)c1ccccc1S2 [Compound I, 11-Cyclohexyl-dibenzo[b,f][1,4]thiazepine-8-carboxylic acid piperidin-1-ylamide]
effect on CP 55,940-induced hypothermia (core body temperature) [1]: attenuates CP 55,940-induced hypothermia | cumulative food intake [2]: suppresses the cumulative food intake in fasted rats | effect on antinociceptive actions of CP55,940 (tail flick latency) [3]: attenuates the antinociceptive actions of CP55,940

O=C(NN1CCCCC1)c1ccc2c(c1)N=C(c1ccc(Cl)s1)c1ccccc1S2 [drawing 1829]
inhibition at 1 µM [4]: 66%

Cc1ccc(N2CCN(C(=O)c3ccc4c(c3)N=C(C3CCCCC3)c3ccccc3S4)CC2)c(C)c1 [Example 18, (11-Cyclohexyl-dibenzo[b,f][1,4]thiazepin-8-yl)-[4-(2,4-dimethyl-phenyl)-piperazin-1-yl]methanone]
IC50 [5]: 200 nM | % Inhibition [5]: 99% | IC50 [6]: 39.8 nM | Emax [6]: 99%

O=C(NC1CCC(F)(F)CC1)c1ccc2c(c1)N=C(c1cccc(Cl)c1)c1ccccc1S2 [drawing 1838]
inhibition at 1 µM [4]: 62%

O=C(NN1CCCCC1)c1ccc2c(c1)N=C(c1ccc(F)cc1)c1ccccc1S2 [drawing 1815]
inhibition at 1 µM [4]: 91%

O=C(NN1CCCCCC1)c1ccc2c(c1)N=C(c1cccc(F)c1)c1ccccc1S2 [drawing 1827]
inhibition at 1 µM [4]: 88%

CCOC(=O)N1CCC(NC(=O)c2ccc3c(c2)N=C(Cl)c2ccccc2S3)CC1 [Example 14, 4-[(11-chloro-dibenzo[b,f][1,4]thiazepine-8-carbonyl)-amino]-piperidine-1-carboxylic acid ethyl ester]
IC50 [5]: 316 nM | % Inhibition [5]: 94% | IC50 [6]: 126 nM | Emax [6]: 88%

CN1CCc2cccc3c2[C@H]1Cc1ccc(O)c(O)c1-3 [apomorphine, reference compound]
contralateral rotations [7]: dose-dependently elicits contralateral rotations

CCCCNC(=O)c1ccc2c(c1)N=C(c1ccc(Cl)cc1)c1ccc(Cl)cc1S2 [drawing 1732]
Clearance Human [8]: 0 | microsomal CLint at 1 μM [9]: 24 µL/min/mg | microsomal CLint at 1 μM [10]: 29 µL/min/mg

CCCCNC(=O)c1ccc2c(c1)N=C(c1ccc(Cl)cc1)c1ccccc1S2 [Compound II, N-(butyl)-11-(4-chlorophenyl)-dibenzo[b,f,][1,4]thiazepine-8-carboxamide]
food and water intake [11]: attenuated the food and water intake of the rats | preference for the novel object (exploration ratio, discrimination index) [12]: showed a preference for the novel object | contralateral rotations [7]: augments dopaminergic functions

CCCCCCC(C)(C)c1ccc([C@@H]2C[C@H](O)CC[C@H]2CCCO)c(O)c1 [CP 55,940, reference compound]
preference for the novel object (exploration ratio, discrimination index) [12]: showed a preference for the novel object after 1 hour of being dosed with the test compound but then returned back to baseline exploration rates after 2 hours

CC(C)CNC(=O)c1ccc2c(c1)N=C(c1ccc(Cl)s1)c1ccccc1S2 [Example 11, 11-(5-Chlorothiophen-2-yl)-dibenzo[b,f][1,4]thiazepine-8-carboxylic acid isobutylamide]
IC50 [5]: 126 nM | % Inhibition [5]: 95% | IC50 [6]: 15.8 nM | Emax [6]: 84% | Ki [13]: 10 nM

CC(C)CNC(=O)c1ccc2c(c1)N=C(c1ccc(Cl)cc1)c1ccccc1S2 [drawing 1818]
inhibition at 1 µM [4]: 69%
